Results: patent publication US20250388565A1, “ESTROGEN RECEPTOR ALPHA DEGRADERS AND METHODS OF USE THEREOF” (Relay Therapeutics, Inc., priority 2022, published 2025)

Molecular target: T1, ERα protein (HiBiT-tagged) in ESR1_HiBiT KI MCF7 cells (Homo sapiens, UniProt P03372)
T1 sequence (P03372 1-595): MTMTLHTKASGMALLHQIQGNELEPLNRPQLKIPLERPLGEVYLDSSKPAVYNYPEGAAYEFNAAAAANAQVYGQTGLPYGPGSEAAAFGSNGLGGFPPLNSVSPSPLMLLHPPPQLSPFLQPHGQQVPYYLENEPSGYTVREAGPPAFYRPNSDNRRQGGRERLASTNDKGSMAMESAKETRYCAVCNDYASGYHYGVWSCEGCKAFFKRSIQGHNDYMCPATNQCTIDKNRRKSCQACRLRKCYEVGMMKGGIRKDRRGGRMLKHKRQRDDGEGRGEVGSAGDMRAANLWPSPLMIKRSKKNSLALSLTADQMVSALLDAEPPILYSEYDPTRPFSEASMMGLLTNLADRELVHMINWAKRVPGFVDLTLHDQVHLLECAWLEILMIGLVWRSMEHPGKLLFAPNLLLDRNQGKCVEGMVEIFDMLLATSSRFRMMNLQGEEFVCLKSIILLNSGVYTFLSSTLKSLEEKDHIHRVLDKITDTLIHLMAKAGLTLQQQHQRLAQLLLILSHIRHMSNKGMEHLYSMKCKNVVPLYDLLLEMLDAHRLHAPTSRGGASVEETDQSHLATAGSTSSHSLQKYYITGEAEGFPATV
Test: Nano Glo HiBiT Lytic Degradation Assay
Assay type: cell-based
Details: 6 hours with compound, 14-point dose response 1:3, bell-shape curve fit, half-maximal effect of first Hill model, read-out: MCF7 ESR1 HiBiT - (DC50)
Summary of the method: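 Lytic Nano-Glo HiBiT luminescence quantified ERα remaining after a 6 h, 37° C compound exposure of MCF7 cells carrying endogenous HiBiT-tagged ESR1. Dosing used 14 threefold dilutions from a 10 mM DMSO stock (0.1% DMSO final), run in duplicate. Signals were corrected for cell-free background and expressed relative to DMSO, and DC50 came from a bell-shaped curve fit (first Hill model half-maximum).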

Compound | DC50 [nM]
O=C1CC[C@H](N2Cc3cc(N4CCN(CC5CCN(c6ccc([C@@H]7c8ccc(O)cc8C(F)(F)C[C@@H]7c7ccc(F)c(F)c7)cc6)CC5)CC4)ccc3C2=O)C(=O)N1 [Compound I-314, (S)-3-(5-(4-((1-(4-((1R,2S)-2-(3,4-difluorophenyl)-4,4-difluoro-6-hydroxy-1,2,3,4-tetrahydronaphthalen-1-yl)phenyl)piperidin-4-yl)methyl)piperazin-1-yl)-1-oxoisoindolin-2-yl)piperidine-2,6-dione] | 0.33
O=C1CC[C@H](N2Cc3cc(N4CCN(CC5CCN(c6ccc([C@H]7CCCc8cc(O)ccc87)cc6)CC5)CC4)ccc3C2=O)C(=O)N1 (single isomer, unassigned) [Compound I-102] | ≥ 10000
N#Cc1ccc2c(c1)CC[C@H](c1ccccc1)[C@@H]2c1ccc(N2CCC(CN3CCN(c4ccc5c(c4)CN([C@H]4CCC(=O)NC4=O)C5=O)CC3)CC2)cc1 [Compound I-49, (5R,6S)-5-(4-(4-((4-(2-((S)-2,6-dioxopiperidin-3-yl)-1-oxoisoindolin-5-yl)piperazin-1-yl)methyl)piperidin-1-yl)phenyl)-6-phenyl-5,6,7,8-tetrahydronaphthalene-2-carbonitrile] | ≥ 10000
[2H]c1c([2H])c([2H])c([C@@H]2CC(F)(F)c3cc(O)ccc3[C@@H]2c2ccc(N3CCC(CN4CCN(c5ccc6c(c5)CN([C@H]5CCC(=O)NC5=O)C6=O)CC4)CC3)cc2)c([2H])c1[2H] [Compound I-336, (S)-3-(5-(4-((1-(4-((1S,2R)-4,4-difluoro-6-hydroxy-2-(phenyl-d5)-1,2,3,4-tetrahydronaphthalen-1-yl)phenyl)piperidin-4-yl)methyl)piperazin-1-yl)-1-oxoisoindolin-2-yl)piperidine-2,6-dione] | 15
C[C@H]1OC2(CCCCC2)[C@H](c2ccc(N3CCC(CN4CCN(c5ccc6c(c5)CN([C@H]5CCC(=O)NC5=O)C6=O)CC4)CC3)cc2)c2ccc(O)cc21 (single isomer, unassigned) [Compound I-269] | 6
Cc1ccc(F)cc1[C@H]1OCc2cc(O)ccc2[C@H]1c1ccc(N2CCC(CN3CCN(c4ccc5c(c4)CN([C@H]4CCC(=O)NC4=O)C5=O)CC3)CC2)cc1 (single isomer, unassigned) [Compound I-357] | 0.51
O=C1CCC(c2ccc(C3CC4(C3)CN(CC3CCN(c5ccc([C@@H]6c7ccc(O)cc7CC[C@@H]6c6ccccc6)cc5)CC3)C4)cc2)C(=O)N1 (stereo partly drawn) [Compound I-182, 3-(4-(2-((1-(4-((1R,2S)-6-hydroxy-2-phenyl-1,2,3,4-tetrahydronaphthalen-1-yl)phenyl)piperidin-4-yl)methyl)-2-azaspiro[3.3]heptan-6-yl)phenyl)piperidine-2,6-dione] | 2
CC(C)c1ccccc1[C@@H]1OCc2cc(O)ccc2[C@@H]1c1ccc(N2CCC(CN3CCN(c4ccc5c(c4)CN([C@H]4CCC(=O)NC4=O)C5=O)CC3)CC2)cc1 [Compound I-352, (S)-3-(5-(4-((1-(4-((3R,4S)-7-hydroxy-3-(2-isopropylphenyl)isochroman-4-yl)phenyl)piperidin-4-yl)methyl)piperazin-1-yl)-1-oxoisoindolin-2-yl)piperidine-2,6-dione] | 17
CC(C)[C@@H]1CC(F)(F)c2cc(O)ccc2[C@@H]1c1ccc(N2CCC(CN3CCN(c4ccc5c(c4)CN([C@H]4CCC(=O)NC4=O)C5=O)CC3)CC2)cc1 [Compound I-153, (S)-3-(5-(4-((1-(4-((1S,2S)-4,4-difluoro-6-hydroxy-2-isopropyl-1,2,3,4-tetrahydronaphthalen-1-yl)phenyl)piperidin-4-yl)methyl)piperazin-1-yl)-1-oxoisoindolin-2-yl)piperidine-2,6-dione] | 13
Cc1c(F)cccc1[C@H]1OCc2cc(O)ccc2[C@H]1c1ccc(N2CCC(CN3CCN(c4ccc5c(c4)CN([C@H]4CCC(=O)NC4=O)C5=O)CC3)CC2)cc1 (single isomer, unassigned) [Compound I-379] | 0.37
O=C1CCC(c2ccc(N3CC[C@]4(CCN(CC5CCN(c6ccc([C@@H]7c8ccc(O)cc8C(F)(F)C[C@@H]7c7ccccc7)cc6)CC5)C4)C3)cc2)C(=O)N1 (single isomer, unassigned) [Compound I-281] | 0.51
O=C1CC[C@H](N2Cc3cc(N4CCN(CC5CCN(c6ccc([C@@H]7c8ccc(O)cc8CC[C@@H]7c7cccc8c7CCC8)cc6)CC5)CC4)ccc3C2=O)C(=O)N1 (single isomer, unassigned) [Compound I-410] | ≥ 10000
Cn1nccc1[C@H]1CCc2cc(O)ccc2[C@H]1c1ccc(N2CCC(CN3CCN(c4ccc5c(c4)CN([C@H]4CCC(=O)NC4=O)C5=O)CC3)CC2)cc1 (single isomer, unassigned) [Compound I-24] | ≥ 10000
O=C1CC[C@H](N2Cc3cc(N4CCN(CC5CCN(c6ccc([C@@H]7c8ccc(O)cc8CC[C@@H]7c7ccc8c(c7)CC8)cc6)CC5)CC4)ccc3C2=O)C(=O)N1 (single isomer, unassigned) [Compound I-57] | 7
Cc1c(F)cccc1[C@@H]1OCc2cc(O)ccc2[C@@H]1c1ccc(N2CCC(CN3CCN(c4ccc5c(c4)CN([C@H]4CCC(=O)NC4=O)C5=O)CC3)CC2)cc1 (single isomer, unassigned) [Compound I-380] | 77
C[C@H]1OC2(CCCCC2)[C@@H](c2ccc(N3CCC(CN4CCN(c5ccc6c(c5)CN([C@H]5CCC(=O)NC5=O)C6=O)CC4)CC3)cc2)c2ccc(O)cc21 [Compound I-268, (S)-3-(5-(4-((1-(4-((1′R,4′S)-7′-hydroxy-1′-methylspiro[cyclohexane-1,3′-isochroman]-4′-yl)phenyl)piperidin-4-yl)methyl)piperazin-1-yl)-1-oxoisoindolin-2-yl)piperidine-2,6-dione] | ≥ 10000
O=C1CC[C@H](N2Cc3cc(N4CCN(CC5CCN(c6ccc([C@@H]7c8ccc(O)cc8CO[C@@H]7c7ccc8c(c7)CCC8)cc6)CC5)CC4)ccc3C2=O)C(=O)N1 [Compound I-365, (S)-3-(5-(4-((1-(4-((3S,4R)-3-(2,3-dihydro-1H-inden-5-yl)-7-hydroxyisochroman-4-yl)phenyl)piperidin-4-yl)methyl)piperazin-1-yl)-1-oxoisoindolin-2-yl)piperidine-2,6-dione] | 0.24
O=C1CC[C@H](N2Cc3cc(N4CCN(CC5CCN(c6ccc([C@@H]7c8ccc(O)cc8CC[C@@H]7CC(F)(F)F)cc6)CC5)CC4)ccc3C2=O)C(=O)N1 [Compound I-157, (3S)-3-[5-[4-[[1-[4-[(1R,2R)-6-hydroxy-2-(2,2,2-trifluoroethyl)tetralin-1-yl]phenyl]-4-piperidyl]methyl]piperazin-1-yl]-1-oxo-isoindolin-2-yl]piperidine-2,6-dione] | 0.86
Cc1ccc([C@H]2OCc3cc(O)ccc3[C@H]2c2ccc(N3CCC(CN4CCN(c5ccc6c(c5)CN([C@H]5CCC(=O)NC5=O)C6=O)CC4)CC3)cc2)cc1F (single isomer, unassigned) [Compound I-355] | 0.27

Continued, values first:

DC50 [nM] | Compound
20 | Cc1cccc([C@H]2CCc3cc(O)ccc3[C@H]2c2ccc(N3CCC(CN4CCN(c5ccc6c(c5)CN([C@H]5CCC(=O)NC5=O)C6=O)CC4)CC3)cc2)c1 (single isomer, unassigned) [II-28]
16 | O=C1CC[C@H](N2Cc3cc(N4CCN(CC5CCN(c6ccc([C@@H]7c8ccc(O)c(Cl)c8CC[C@@H]7c7ccccc7)cc6Cl)CC5)CC4)ccc3C2=O)C(=O)N1 [II-64]
1140 | C[C@@H]1CN(CC2CCN(c3ccc([C@H]4c5ccc(O)cc5CC[C@H]4c4ccccc4)cc3)CC2)CCN1c1ccc2c(c1)CN([C@H]1CCC(=O)NC1=O)C2=O (single isomer, unassigned) [II-4]
6 | C[C@H]1C[C@@H](CN2CCN(c3ccc4c(c3)CN(C3CCC(=O)NC3=O)C4=O)CC2)CCN1c1ccc([C@@H]2c3ccc(O)cc3CC[C@@H]2c2ccccc2)cc1 (single isomer, unassigned) [II-49]
2 | O=C1CCC(N2Cc3c(ccc(N4CCN(CC5CCN(c6ccc([C@@H]7c8ccc(O)cc8CC[C@@H]7c7ccccc7)cc6)CC5)CC4)c3F)C2=O)C(=O)N1 (single isomer, unassigned) [II-16]
≥ 10000 | O=C1CC[C@H](N2Cc3cc(N4C[C@H]5C[C@@H]4CN5CC4CCN(c5ccc([C@H]6c7ccc(O)cc7CC[C@H]6c6ccccc6)cc5)CC4)ccc3C2=O)C(=O)N1 (single isomer, unassigned) [II-6]
≥ 10000 | O=C1CC[C@H](N2Cc3cc(N4CCN(CC5CCN(c6ccc([C@H]7c8ccc(O)cc8CC[C@H]7c7ccccc7)cn6)CC5)CC4)ccc3C2=O)C(=O)N1 [II-79]
0.84 | O=C1CC[C@H](N2Cc3cc(N4CCN(CC5CCN(c6ccc([C@@H]7c8ccc(O)cc8CC[C@@H]7c7ccccc7)cc6F)CC5)CC4)ccc3C2=O)C(=O)N1 [II-82]
1100 | O=C1CCC(N2Cc3cc([C@H]4CCN(CC5CCN(c6ccc([C@@H]7c8ccc(O)cc8CC[C@@H]7c7ccccc7)cc6)CC5)C[C@@H]4F)ccc3C2=O)C(=O)N1 (single isomer, unassigned) [II-89]
